Assays:
[1] = system: non-small cell lung cancer cells (非小细胞肺癌细胞); conditions: cited from earlier work
Cal-27 cells [2] = experiment: Macropinocytosis marker Dextran AF488 uptake and organelle probe co-localization, confocal microscopy (Experimental Example 1, Fig. 1b-1e); assay type: cell-based
HSC-4 cells = experiment: CX-4945-induced vacuolization, phase-contrast microscopy (Experimental Example 1, Fig. 1a); assay type: cell-based; conditions: 20μM CX-4945, 12h
UM1 cells = experiment: as above; assay type: cell-based; conditions: 40μM CX-4945, 12h
[3] = system: cholangiocarcinoma cells (胆管癌细胞); conditions: cited from earlier work
Cal-27 cells [4] = experiment: CX-4945-induced vacuolization, phase-contrast microscopy (Experimental Example 1, Fig. 1a); assay type: cell-based; conditions: 20μM CX-4945, 12h
HSC-3 cells = experiment: as above; assay type: cell-based; conditions: 40μM CX-4945, 12h
[5] = system: colorectal cancer cells (结直肠癌细胞); conditions: cited from earlier work
CK2 = CK2 (Homo sapiens, UniProt P68400); conditions: cited from earlier work
CK2, sequence (P68400 whole entry): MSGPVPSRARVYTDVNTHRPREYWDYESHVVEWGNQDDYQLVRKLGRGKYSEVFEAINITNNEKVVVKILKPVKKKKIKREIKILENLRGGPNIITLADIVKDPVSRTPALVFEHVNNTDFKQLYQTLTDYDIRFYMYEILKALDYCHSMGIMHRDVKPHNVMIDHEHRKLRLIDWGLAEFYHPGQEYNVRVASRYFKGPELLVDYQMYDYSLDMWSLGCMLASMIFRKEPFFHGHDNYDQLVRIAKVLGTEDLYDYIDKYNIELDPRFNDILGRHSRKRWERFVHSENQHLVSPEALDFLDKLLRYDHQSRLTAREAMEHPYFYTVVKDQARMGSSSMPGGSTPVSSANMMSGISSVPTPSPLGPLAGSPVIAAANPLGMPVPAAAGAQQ

SMILES: O=C(O)c1ccc2c(c1)nc(Nc1cccc(Cl)c1)c1ccncc12 [CX-4945]
- induction of macropinocytosis [1]: 可诱导巨胞饮的发生
- Dextran AF488 uptake in vacuoles (Cal-27 cells [2]; 10μM CX-4945, 0.5mg/mL Dextran AF488, 12h): 大多数空泡内都摄入了大量的Dextran AF488,呈现Dextran AF488阳性
- co-localization of Dextran AF488-positive vacuoles with endoplasmic reticulum (Cal-27 cells [2]; 10μM CX-4945, 0.5mg/mL Dextran AF488, ER-tracker, 12h): 不与内质网共定位
- co-localization of Dextran AF488-positive vacuoles with lysosomes (Cal-27 cells [2]; 10μM CX-4945, 0.5mg/mL Dextran AF488, Lyso-tracker, 12h): 有一部分与溶酶体共定位
- co-localization of Dextran AF488-positive vacuoles with mitochondria (Cal-27 cells [2]; 10μM CX-4945, 0.5mg/mL Dextran AF488, Mito-tracker, 12h): 不与线粒体共定位
- vacuole formation (HSC-4 cells): 均产生了空泡
- vacuole formation (UM1 cells): 均产生了空泡
- induction of macropinocytosis [3]: 可诱导巨胞饮的发生
- vacuole formation (Cal-27 cells [4]): 均产生了空泡
- vacuole formation (HSC-3 cells): 均产生了空泡
- induction of macropinocytosis [5]: 可诱导巨胞饮的发生
- selectivity as CK2 inhibitor (CK2): 高度选择性

Reference: patent CN115227715A, “一种用于治疗癌症的联合用药物和药物组合物” (priority 2021, dated 2022)
